Here are results for 18 compounds from patent US20040152903A1, “6-chloro-3-pyridylmethylpropylamine derivatives, preparation process thereof and bactericides” (priority 2004, published 2004).

Experiment [1] concerns wheat powdery mildew. Nature of the experiment: Test of control effect on wheat powdery mildew. Further details: Control Value: scale not given here. The following applies: wettable powder 125 mg/l, 100 liters/10 a, wheat seedlings (Nourin 64), examined 9th to 14th day after inoculation. Format: in vivo. The protocol: (Test of Control Effect on Wheat Powdery Mildew) Wettable powders were prepared from compounds of the present invention I-1 to I-27 and comparative compounds (a) to (d), (m-1) and (m-3). The obtained wettable powder was diluted and suspended with water to provide the predetermined concentration (125 mg/l), and was sprinkled onto seedlings of wheat (variety: “Nourin 64”) at the first to the second leaf period which were cultivated using square plastic pots (size: 6.4 cm×6.4 cm) in a rate of 100 liters/10 a (ares). After drying the sprinkled leaves with air, a suspension of wheat powdery mildew spores taken from infected leaves was inoculated by spraying onto the sprinkled leaves. They were supervised in a green house (temperature: 20 to 24° C., relative humidity: 20 to 70 RH). On the 9th to 14th day after the inoculation, the infection degree was examined according to the following scale and the control value of each compound was calculated by the following calculation equation 1. [table]

Another experiment relates to cucumber powdery mildew. Nature of the experiment: Test of control effect on cucumber powdery mildew. Format: in vivo. To be noted: wettable powder 100 mg/l, 100 liters/10 a, cucumber (Sagamihanpakufushinari), examined 9th to 14th day after inoculation. The protocol: (Test of Control Effect on Cucumber Powdery Mildew) The wettable powders formulated by using each of the compounds I-1 to 27 according to the present invention and the comparative compounds (a) to (d), (m-1) and (m-3) were each diluted and suspended with water to a predetermined concentration (100 mg/l), the suspension was sprinkled over the first to the second leaf period cucumbers (variety: “[…]”) cultivated by using a square plastic pot (size: 6.4 cm×6.4 cm) in a rate of 100 liters/10 a (ares). After the sprinkled leaves were air-dried, the spores were inoculated over the leaves by sprinkling the same with a brush from an infected leaf, a disease was contracted in a glass house (temperature: 20 to 24° C., relative humidity: 20 to 70 RH). On the 9th to 14th day after the inoculation, the infection degree was examined according to the following scale and the control value of each compound was calculated by the following calculation equation 2: (Examination Scale) [table]

A further experiment has as its system Botrytis cinerea. Nature of the experiment: Antifungal activity test (PDA plate, hypha extension inhibition). Format: cell-based. To be noted: 1.6 ppm in PDA culture medium. The procedure: (Antifungal Activity Test against Various Pathogenic Fungi) For each of the compounds I-1 to 27 of the present invention and the comparative compounds (a) to (d), (m-1) and (m-3), 20 mg was weighed and dissolved in 2 ml of dimethylsulfoxide, and a double dilution row in 10 steps was prepared by further using dimethylsulfoxide. A 0.6 ml portion of these solutions was each added to 60 ml of a PDA culture medium (potato-dextrose-agar culture medium) at about 60° C., they were well mixed in a 100 ml Erlenmeyer flask, the solution was poured into a schale and was solidified, the plate culture media containing the compounds according to the present invention with final concentrations of 100, 50.0, 25.0, 12.5, 6.3, 3.2, 1.6, 0.8, 0.4 and 0.2 mg/l were prepared. On the other hand, the specimen bacteria cultured on the plate culture media beforehand was punched by a 4 mm diameter cork borer, and was inoculated on the plate culture media containing the aforementioned chemicals. After the inoculation, the bacteria were cultured at the optimum growth temperature of each bacterium for 1 to 7 days (for this optimum growth temperature, LIST OF CULTURES 1996 Microorganisms 10th edition published by Fermentation Research Institute (Foundation) can be referred to.), and the growth of the bacteria was measured by the diameter of a colony. […] R=100(dc−dt)/dc (Equation 3) [wherein each symbol is shown as follows: R=Hypha extension inhibition rate (%), dc=Diameter of colony on no-treated plate, dt=Diameter of colony on chemical-treated plate.] The results obtained above was evaluated in 5 steps in accordance with the following examination scale. <Growth Inhibition> 5: Hypha extension inhibition rate of 90% or more 4: Hypha extension inhibition rate of from 70% to less than 90% 3: […] 2: […] In addition, the abbreviations in Table 10 are as follows: B.c: Botrytis cinerea

In experiment [2] the test system is wheat powdery mildew. Nature of the experiment: Permeable mobility fungicidal effect test in leaf section of wheat powdery mildew. It is filed as in vivo. To be noted: length of non-contracted area relative to compound (m-2); 200 mg/l, 0.5 μl applied to wheat leaf (Abukumawase). The protocol:
(Permeable Mobility Fungicidal Effect Test in Leaf Section of Wheat Powdery Mildew) In the test example 4, permeable mobility fungicidal effect test was performed on the leaf section of wheat powdery mildew with regard to the compounds I-1 to 27 according to the present invention and the comparative compounds (a) to (d), and (m-1) to (m-3) with the method described later. <Test Method> The compound in the form of a wettable powder obtained by Formulation 2 or the like was diluted and suspended with water to a predetermined concentration (200 mg/l), and 0.5 μl of the suspension was applied to a 2 to 3 cm leaf portion from the root of the three leaves of the 4th to 4.5th leaf period wheat (variety: Abukumawase) cultured by using a square plastic pot (size: 6.4 cm×6.4 cm). After these wheat leaves were subject to still standing in a glass house (temperature: 20 to 24° C., relative humidity: 20 to 70 RH) for one day, the spores of wheat powdery mildew were inoculated over the leaves by sprinkling the same with a brush from an infected leaf, a disease was contracted in the same glass house. The length of a non-contracted area generated from the applied portion to the direction of the leaf top was measured, and a relative mobility to the compound (m-2) was calculated with the following calculation […] by using the comparative compound (m-2) as a standard compound. Relative mobility=(Length of non-contracted area in each chemical section (cm)/Length of non-contracted area of compound (m-2) (cm)) (Equation 4)

Molecules are shown by their SMILES.

Usually pest or weed control stands for how far the test organism was held down. By inhibition is commonly meant the share of the control response that was lost under treatment. In the experiment on wheat powdery mildew [1] (Triticum aestivum), `COc1cccc(CC(C)CN(C)Cc2ccc(Cl)nc2)c1` (centres unmarked) [(m-3), 6-chloro-N-[3-(3-methoxyphenyl)-2-methylpropyl]-N-methyl-3-pyridylmethylamine, reference compound] displayed a pest or weed control at 125 µg/mL of 0%. Moreover, the pest or weed control at 100 µg/mL in the experiment on cucumber powdery mildew (Cucumis sativus) stood at 0%. In the experiment with Botrytis cinerea (read-out: Growth Inhibition B.c (1.6)), the inhibition at 1.6 ppm is below 20%.
`CC(Cc1cc(C(F)(F)F)cc(C(F)(F)F)c1)CN(C)Cc1ccc(Cl)nc1` (centres unmarked) [Compound I-1]: the “Control Value” in the experiment with wheat powdery mildew [1] and in the experiment on cucumber powdery mildew was 100 each time. In addition, the “Growth Inhibition B.c (1.6)” value in the experiment with Botrytis cinerea was 4 (Hypha extension inhibition rate of from 70% to less than 90%). The “Relative Mobility” value with wheat powdery mildew [2] worked out at 3.
`CC(Cc1ccc(C(F)(F)F)cc1C(F)(F)F)CN(C)Cc1ccc(Cl)nc1` (centres unmarked) [Compound I-2]: the “Control Value” in the experiment on wheat powdery mildew [1] and in the experiment with cucumber powdery mildew was 100 in each case. Also, the “Growth Inhibition B.c (1.6)” value with Botrytis cinerea is on record as 4 (Hypha extension inhibition rate of from 70% to less than 90%). The “Relative Mobility” value in the experiment with wheat powdery mildew [2] was determined as 3.
For the compound `CC(Cc1cc(C(F)(F)F)ccc1C(F)(F)F)CN(C)Cc1ccc(Cl)nc1` (centres unmarked) [Compound I-3], the “Control Value” in the experiment on wheat powdery mildew [1] is recorded as 90; in the experiment with cucumber powdery mildew it was 100. Further, the “Growth Inhibition B.c (1.6)” value in the experiment on Botrytis cinerea is on record as 4 (Hypha extension inhibition rate of from 70% to less than 90%). For the same compound, in the experiment on wheat powdery mildew [2], the “Relative Mobility” value was found to be 3.
As for `CC(Cc1cc(C(F)F)cc(C(F)(F)F)c1)CN(C)Cc1ccc(Cl)nc1` (centres unmarked) [Compound I-4], the “Control Value” is 100 with wheat powdery mildew [1] and 80 in the experiment with cucumber powdery mildew. Also, in the experiment with Botrytis cinerea, the “Growth Inhibition B.c (1.6)” value is 4 (Hypha extension inhibition rate of from 70% to less than 90%). Moreover, the “Relative Mobility” value in the experiment on wheat powdery mildew [2] worked out at 3.
On to `CC(Cc1cc(Cl)cc(C(F)(F)F)c1)CN(C)Cc1ccc(Cl)nc1` (centres unmarked) [Compound I-5], for which the “Control Value” in the experiment with wheat powdery mildew [1] and with cucumber powdery mildew was 100 each time. Moreover, the “Growth Inhibition B.c (1.6)” value in the experiment with Botrytis cinerea was 4 (Hypha extension inhibition rate of from 70% to less than 90%). The “Relative Mobility” value in the experiment with wheat powdery mildew [2] was determined as 3.
Regarding `CC(Cc1cc(F)cc(C(F)(F)F)c1)CN(C)Cc1ccc(Cl)nc1` (centres unmarked) [Compound I-6], the “Control Value” in the experiment with wheat powdery mildew [1] and with cucumber powdery mildew was 100 in each case. The “Growth Inhibition B.c (1.6)” value in the experiment on Botrytis cinerea was 4 (Hypha extension inhibition rate of from 70% to less than 90%). Also, the “Relative Mobility” value with wheat powdery mildew [2] is given as 5.
Regarding `CC(Cc1cccc(C(F)(F)F)c1F)CN(C)Cc1ccc(Cl)nc1` (centres unmarked) [Compound I-7], the “Control Value” with wheat powdery mildew [1] came to 100; with cucumber powdery mildew, 90. For the same compound, the “Growth Inhibition B.c (1.6)” value with Botrytis cinerea is reported as 4 (Hypha extension inhibition rate of from 70% to less than 90%). The “Relative Mobility” value in the experiment with wheat powdery mildew [2] is on record as 5.
On to `CC(Cc1c(F)c(F)c(C(F)(F)F)c(F)c1F)CN(C)Cc1ccc(Cl)nc1` (centres unmarked) [Compound I-11], for which the “Control Value” in the experiment with wheat powdery mildew [1] is reported as 90; in the experiment with cucumber powdery mildew, 100. In the experiment with Botrytis cinerea, the “Growth Inhibition B.c (1.6)” value is 4 (Hypha extension inhibition rate of from 70% to less than 90%). Also, in the experiment with wheat powdery mildew [2], the “Relative Mobility” value was 5.
Turning to `CC(Cc1ccc(OC(F)F)cc1)CN(C)Cc1ccc(Cl)nc1` (centres unmarked) [Compound I-13], the “Control Value” with wheat powdery mildew [1] and in the experiment with cucumber powdery mildew was 100 in each case. Besides, the “Growth Inhibition B.c (1.6)” value with Botrytis cinerea is reported as 4 (Hypha extension inhibition rate of from 70% to less than 90%). Further, the “Relative Mobility” value in the experiment on wheat powdery mildew [2] is given as 9.
As to `CC(Cc1ccc(OC(F)(F)C(F)C(F)(F)F)cc1)CN(C)Cc1ccc(Cl)nc1` (centres unmarked) [Compound I-14], the “Control Value” in the experiment with wheat powdery mildew [1] and in the experiment on cucumber powdery mildew was 100 in each case. The “Growth Inhibition B.c (1.6)” value in the experiment with Botrytis cinerea is 4 (Hypha extension inhibition rate of from 70% to less than 90%). Further, in the experiment on wheat powdery mildew [2], the “Relative Mobility” value is given as 7.
In the case of `CC(Cc1ccc(Cl)c(OC(F)(F)F)c1)CN(C)Cc1ccc(Cl)nc1` (centres unmarked) [Compound I-15], the “Control Value” in the experiment on wheat powdery mildew [1] and in the experiment on cucumber powdery mildew was 100 each time. In the experiment on Botrytis cinerea, the “Growth Inhibition B.c (1.6)” value is recorded as 4 (Hypha extension inhibition rate of from 70% to less than 90%). In addition, in the experiment with wheat powdery mildew [2], the “Relative Mobility” value came out at 9.
Consider `CC(Cc1ccc(OC(F)(F)F)c(Cl)c1)CN(C)Cc1ccc(Cl)nc1` (centres unmarked) [Compound I-18], for which the “Control Value” in the experiment on wheat powdery mildew [1] and in the experiment on cucumber powdery mildew was 100 each time. Also, the “Growth Inhibition B.c (1.6)” value with Botrytis cinerea is recorded as 5 (Hypha extension inhibition rate of 90% or more). Also, the “Relative Mobility” value with wheat powdery mildew [2] was found to be 8.
Regarding `CC(Cc1ccc(OC(F)(F)Br)c(Cl)c1)CN(C)Cc1ccc(Cl)nc1` (centres unmarked) [Compound I-19], the “Control Value” in the experiment with wheat powdery mildew [1] and with cucumber powdery mildew was 100 throughout. For the same compound, the “Growth Inhibition B.c (1.6)” value in the experiment with Botrytis cinerea is 4 (Hypha extension inhibition rate of from 70% to less than 90%). The “Relative Mobility” value with wheat powdery mildew [2] is 8.
As for `CC(Cc1cc(Cl)c(F)c(Cl)c1)CN(C)Cc1ccc(Cl)nc1` (centres unmarked) [Compound I-22], the “Control Value” in the experiment on wheat powdery mildew [1] and in the experiment on cucumber powdery mildew was 100 in each case. The “Growth Inhibition B.c (1.6)” value with Botrytis cinerea is 4 (Hypha extension inhibition rate of from 70% to less than 90%). Besides, in the experiment with wheat powdery mildew [2], the “Relative Mobility” value came out at 3.
Turning to `CC(Cc1c(F)c(F)c(F)c(F)c1F)CN(C)Cc1ccc(Cl)nc1` (centres unmarked) [Compound I-23], the “Control Value” with wheat powdery mildew [1] is 100; in the experiment with cucumber powdery mildew, 70. Besides, the “Growth Inhibition B.c (1.6)” value in the experiment on Botrytis cinerea is reported as 4 (Hypha extension inhibition rate of from 70% to less than 90%). Further, the “Relative Mobility” value with wheat powdery mildew [2] came out at 4.
On to `CC(Cc1ccc2c(c1)OC(Cl)(Cl)O2)CN(C)Cc1ccc(Cl)nc1` (centres unmarked) [Compound I-25], for which the “Control Value” in the experiment with wheat powdery mildew [1] and with cucumber powdery mildew was 100 in each case. In addition, the “Growth Inhibition B.c (1.6)” value in the experiment on Botrytis cinerea is given as 4 (Hypha extension inhibition rate of from 70% to less than 90%). In the experiment with wheat powdery mildew [2], the “Relative Mobility” value is reported as 3.
Regarding `CC(Cc1ccc2c(c1)OC(F)(F)C(F)(F)O2)CN(C)Cc1ccc(Cl)nc1` (centres unmarked) [Compound I-26], the “Control Value” in the experiment with wheat powdery mildew [1] and in the experiment on cucumber powdery mildew was 100 in each case. For the same compound, the “Growth Inhibition B.c (1.6)” value with Botrytis cinerea is listed as 4 (Hypha extension inhibition rate of from 70% to less than 90%). In addition, in the experiment with wheat powdery mildew [2], the “Relative Mobility” value is reported as 3.
